Three compounds from ChEMBL document CHEMBL1135015, “Silanediol-based inhibitor of thermolysin” (Bioorg Med Chem Lett, 2002) can be followed below.

What is called Ki is a measure of affinity in units of concentration, obtained from inhibition or displacement. Low values mean higher affinity, high ones lower affinity.

This assay concerns the target T1, Thermolysin (Bacillus thermoproteolyticus, UniProt P00800).
T1 sequence (P00800 whole entry): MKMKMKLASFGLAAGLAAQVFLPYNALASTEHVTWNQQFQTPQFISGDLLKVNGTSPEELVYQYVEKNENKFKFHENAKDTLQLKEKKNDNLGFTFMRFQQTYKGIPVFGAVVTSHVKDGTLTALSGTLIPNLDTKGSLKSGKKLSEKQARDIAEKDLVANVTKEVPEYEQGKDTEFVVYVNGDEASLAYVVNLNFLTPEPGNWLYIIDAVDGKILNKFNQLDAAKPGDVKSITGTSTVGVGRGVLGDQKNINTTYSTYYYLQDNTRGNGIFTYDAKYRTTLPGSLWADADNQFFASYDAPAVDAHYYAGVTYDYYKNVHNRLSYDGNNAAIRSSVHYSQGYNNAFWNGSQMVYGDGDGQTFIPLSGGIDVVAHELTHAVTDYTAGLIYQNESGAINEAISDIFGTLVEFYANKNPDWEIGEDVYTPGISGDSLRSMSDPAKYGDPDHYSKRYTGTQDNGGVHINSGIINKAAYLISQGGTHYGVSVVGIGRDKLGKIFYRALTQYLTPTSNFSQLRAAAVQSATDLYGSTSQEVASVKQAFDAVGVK
Nature of the assay: Competitive inhibition of thermolysin evaluated using the substrate FAGLA (Sigma); Competitive binding observed.

Turning to `CC(C)C[C@H](CP(=O)(O)CNC(=O)OCc1ccccc1)C(=O)N[C@@H](CC(C)C)C(=O)O`, the Ki is 11 nM.
`CC(C)C[C@@H](CO)C[Si](CN)(c1ccccc1)c1ccccc1` registered a Ki of 41 nM.
In turn, `CC(C)C[C@H](C[Si](O)(O)CNC(=O)CCc1ccccc1)C(=O)N[C@@H](CC(C)C)C(=O)O` came in with a Ki of 41 nM.
